In one assay the test system is D1 receptor. Nature of the assay: D1 agonist-induced phosphorylation of PKA substrates in striatal slices. The assay is classed as cell-based, mouse. Particulars: 1 μM, 10 min. Here is the method:
Dopamine achieves many of its effects in neurons by activation of the D1 class of dopamine receptors, which are positively coupled to the activation of PKA. […] For this purpose, the state of phosphorylation of GluR1, DARPP-32, ARPP-21, and ARPP-16 was determined using phosphorylation state-specific antibodies. […] No significant difference was observed between wildtype and p35^−/− mice in basal levels of phosphorylation of any of these substrates.

In assay [1] the test system is Cdk5. Nature of the assay: Cdk5 mRNA and protein levels in striatum after chronic cocaine. The assay is classed as in vivo, rat. From the text: FIGS. 8A-8C show the increased expression of Cdk5 in inducible transgenic mice overexpressing ΔFosB and in rats chronically treated with cocaine. […] The positions of oligonucleotides encoding ΔFosB and Cdk5 are indicated. […] Representative labelings are shown for sections from inducible transgenic mice on (Dox) or off doxycycline (H2O) (left) and rats treated chronically with saline or cocaine (right). Quantitation of signals in the caudatoputaman (CP) and nucleus accumbens (NA) are shown. […] Representative Cdk5 immunoblots of striatal tissue dissected from inducible transgenic mice on or off doxycycline (left) and from rats treated chronically with saline or cocaine (right) are shown with quantitation. Data represent means ±SEM for n=6; *p<0.05 compared to control, Student's t test.
ΔFosB-inducible transgenic mice were either fed […] doxycycline or denied doxycycline for 12 weeks. Adult male Sprague-Dawley rats initially weighing between 160-240 g were injected with cocaine or vehicle (i.p., 20 mg/kg, […]) at the same time each day for 8 days. All analyses were initiated 12 hr after the final dose. For in situ hybridization studies, [α-^35S]UTP-labeled riboprobes were prepared by in vitro transcription from cDNA clones corresponding to full-length clones of rat Cdk5 [Zheng et al., J. Neurobiol. 35:141-159 (1998)]. Cryostat sections were prepared and hybridized as previously described. After hybridization, the sections were exposed to Biomax MR film (Kodak) for 2-6 days. All autoradiograms were analyzed with a Microcomputer Imaging Device system (M4, Imaging Research, Inc.) as described elsewhere [Le Moine and Bloch, J. Comp. Neurol. 355:418426 (1995)]. Statistical analyses of the data were performed using two-tailed unpaired Student's t test. Striatal tissue was rapidly dissected on ice and homogenized in boiling lysis buffer containing 1% SDS and 50 mM sodium flouride with sonication. Striatal slice preparation and treatment were conducted as previously described [Example 1, Bibb et al., Nature 402:669-671 (1999); Nishi et al., J. Neurosci 17:8147-8155 (1997)]. […]

Assay [2] concerns Cdk5. Nature of the assay: Cocaine-induced locomotor activity with intra-accumbens infusion of Cdk5 inhibitors. The assay is classed as in vivo, rat. Particulars: rats, intra-accumbens 40 nmol/0.5 μl.
Procedure: Doses of cocaine hydrochloride (15 mg/kg i.p. in sterile 0.9% sodium chloride) were chosen to produce a moderate response to cocaine over successive days. […] Drugs were dissolved in sterile phosphate buffered saline containing 50% DMSO. Intracerebral microinfusions were made bilaterally in volumes of 0.5 μl over a period of 2 min with an additional 2 min allowed to elapse prior to removal of the infusion needles and replacement of the stylettes. […] Drugs were given at the same time each day. Subjects were then placed into the chambers and activity was monitored for 60 min.
In assay [3] the test system is dissociated striatal neurons. Kind of assay: Whole-cell voltage-gated Ca2+ current, patch-clamp of dissociated striatal neurons. Conditions: 10 μM. The assay is classed as cell-based, mouse. As to the method: The physiological consequence of PKA inhibition by phospho-Thr75 DARPP-32 was also assessed. […] Opin. Neurobiol. 8:330-334 (1998)], were analyzed using patch-clamp recordings of dissociated striatal neurons (FIGS. 3g and 3h). […] This effect was virtually abolished in neurons from DARPP-32 knockout mice (1.6±0.3%, n=5, p<0.01, paired t test).

The next assay relates to mouse striatal slices. Kind of assay: Phosphorylation of PKA substrates in striatal slices treated with roscovitine. Particulars: 10 μM, 1 h.
The mark [4] stands for this setting: rats, 20 mg/kg i.p. daily for 8 days, in situ hybridization.

On to `Oc1cc2c(c(Cl)c1O)CCNCC2c1ccccc1` (stereo not drawn) [SKF 81297], for which the “phosphorylation of GluR1, DARPP-32, ARPP-21 and ARPP-16 (PKA sites)” value in the assay with D1 receptor (p35−/− mouse striatal slices, versus wildtype) was “to an even greater extent”; with D1 receptor (wildtype mouse striatal slices) it was “increased”.

Turning to `COC(=O)[C@H]1[C@@H](OC(=O)c2ccccc2)C[C@@H]2CC[C@H]1N2C` [cocaine], the “Cdk5 protein levels in striatal tissue versus control” value with Cdk5 [1] (rats exposed chronically, immunoblot) came out at 180±20%. In the assay with Cdk5 [1] (setting [4]), the “Cdk5 mRNA levels in caudatoputamen versus saline” value turned out to be 151.8±11.8% and the “Cdk5 mRNA levels in nucleus accumbens versus saline” value is 150.5±10.0%.

Regarding `Cn1cnc2nc(NCCO)nc(NCc3ccccc3)c21` [iso-olomoucine], in the assay on Cdk5 [2], the “locomotor or stereotypic responses to cocaine” value is on record as “failed to enhance”.

Take `CC[C@H](CO)Nc1nc(NCc2ccccc2)c2ncn(C(C)C)c2n1` [roscovitine]: the “enhancement of whole-cell Ca2+ current” value in assay [3] (neurons from DARPP-32 knockout mice) amounted to 1.6±0.3%. Moreover, in assay [3] (wildtype neurons), the “enhancement of whole-cell Ca2+ current” value was 9.7% ±1.0%. Further, the “increase in phospho-Ser845 GluR1” value in the assay with mouse striatal slices (striatal slices from DARPP-32−/− mice) is “not observed”. The “Total GluR1 levels” value with mouse striatal slices (striatal slices) is “unaffected”. Also, in the assay on mouse striatal slices (wildtype mouse striatal slices), the “increase in phosphorylation of ARPP-16 (phospho-Ser88)” value is 2.5±0.2 fold and the “increase in phosphorylation of GluR1 (phospho-Ser845)” value was 3.2±0.5 fold.

Source of the values: patent US6989362B1, “Methods of treating dopamine dysregulation using agents that regulate phosphorylation/dephosphorylation in dopamine signaling” (The Rockefeller University, priority 1999, dated 2006).
